Source: patent US4371537A, “Sulfur-substituted phenoxypyridines having antiviral activity” (The Dow Chemical Company, priority 1981, dated 1983)
Values after ≈ are worked out from the molar mass of the structure shown.

Assays:
[1] = Cytotoxicity in tissue culture testing (HeLa monolayers); format: cell-based; conditions: human; HeLa cells; observed at 48 and 72 hours post-treatment; read-out: Cytotoxicity: concentration of the compound found to be toxic to the cell
Protocol: (§1) Monolayered HeLa cells in 16 millimeter (mm) tissue culture dishes were treated with 1 ml of culture medium (Eagles medium supplemented with fetal calf serum) containing subject compound at an appropriate concentration or containing no compound at all. Culture media such as those described herein are more fully described in standard texts, as for example, Kuchler's Biochemical Methods in Cell Culture and Virology, Dowden, Hutchinson and Ross, Inc., Stroudsberg, PA (1977). Following treatment, cells were challenged with 0.05 ml of rhinovirus type 1A (RV-1A), rhinovirus type 2 (RV-2) or Coxsackie A21 virus (Cox A21) in culture medium. Some of the compounds were also tested against rhinovirus type 5 (RV-5), rhinovirus type 8 (RV-8) or rhinovirus type 64 (RV-64). Cell controls received no viruses.
^1 Cytotoxicity figures represent the concentration of the compound, […]

Rhinovirus Type 60 = experiment: Inhibition of cytopathic effect in WI-38 cell culture tubes, rhinovirus type 60; format: cell-based; conditions: Enterovirus; 12.5 μg/ml; WI-38 cells; read-out: Inhibition grade, Rhinovirus Type 60
Protocol: (§2) The test compound was dissolved in an appropriate solvent (generally dimethyl sulfoxide) and incubated at 56° C. for at least 15 minutes and this solution was then used to prepare various test solutions having the desired concentration of test compound in preheated WI maintenance medium (49% Eagles, 49% medium 199, 2% fetal calf serum and antibiotics).
(§3) Triplicate cell culture tubes (WI-38 human embryonic lung cell culture tubes) were fed with 1 ml of medium containing the compound at specified concentrations and inoculated with 3-300 TCID50 (3-300 times the tissue culture infective dose 50, i.e., the dose required to infect 50% of the cell cultures tested). Simultaneous viral titrations were performed. The tissue cultures were supplemented with fresh medium when necessary (around 3-4 days) until viral titrations were completed.
(§4) The cell culture tubes were examined dialy for cytopathic effect. […] Comparisons were made at that time with the percentage of cell sheet destruction in tubes containing virus compound mixtures. Observed differences of 75% or more were graded "+", 74-50% as "±", and less than 50% as "-" inhibition.

Hanks Untyped = experiment: Inhibition of cytopathic effect in WI-38 cell culture tubes, Hanks Untyped; format: cell-based, rhinovirus; conditions: Enterovirus; 12.5 μg/ml; WI-38 cells; read-out: Inhibition grade, Hanks Untyped
Protocol: as §2, §3, §4

Rhinovirus Type 58 = experiment: Inhibition of cytopathic effect in WI-38 cell culture tubes, rhinovirus type 58; format: cell-based; conditions: Enterovirus; 12.5 μg/ml; WI-38 cells; read-out: Inhibition grade, Rhinovirus Type 58
Protocol: as §2, §3, §4

Rhinovirus Type 75 = experiment: Inhibition of cytopathic effect in WI-38 cell culture tubes, rhinovirus type 75; format: cell-based; conditions: Enterovirus; 12.5 μg/ml; WI-38 cells; read-out: Inhibition grade, Rhinovirus Type 75
Protocol: as §2, §3, §4

Cox A21 = experiment: Single Oral Dose test in mice challenged IP with Cox A21; format: in vivo, Swiss male mice; conditions: >3.84 significant (95% confidence level)
Protocol: In addition, some of the compounds were tested in animals utilizing the following procedure, hereinafter referred to as the "Single Oral Dose" test. Swiss male mice, 8-12 grams in weight were challenged intraperitoneally (IP) with 0.2 ml of a normally lethal dose, i.e., a virus dose sufficient to cause […].80-100% mortality in infected animals within 10 days of challenge of Cox A21, in phosphate buffered saline containing 1% heat inactivated fetal calf serum. Three hours later mice were treated orally (P.O.) with 0.2 ml of compound suspended in 0.5% hydroxypropyl methylcellulose (Methocel) or with 0.2 ml of 0.5% Methocel containing no compound. […] Mice were observed daily for 7-10 days post-challenge and deaths recorded. A modified Mantel-Haenzel combined chi-square procedure was used to determine significant difference between virus control and treated groups. Chi-square values greater than 3.84 are considered significant (95% confidence level) in this test.

[2] = test system: rhinovirus type 1A (RV-1A); experiment: Tissue culture testing, rhinovirus type 1A in HeLa cells; format: cell-based; conditions: Enterovirus, 48 and 72 hours, NA = not active at the standard test conditions, read-out: RV-1A: lowest concentration of the compound necessary to cause a 50 percent reduction in cytopathic effect
Protocol: as §1
(§5) ^2 Lowest concentration of the compound (μg/ml) necessary to cause

Rhinovirus Type 68 = experiment: Inhibition of cytopathic effect in WI-38 cell culture tubes, rhinovirus type 68; format: cell-based; conditions: Enterovirus; 12.5 μg/ml; WI-38 cells; read-out: Inhibition grade, Rhinovirus Type 68
Protocol: as §2, §3, §4

rhinovirus type 2 (RV-2) = experiment: Tissue culture testing, rhinovirus type 2 in HeLa cells; format: cell-based; conditions: Enterovirus, 48 and 72 hours, NA = not active at the standard test conditions, read-out: RV-2: lowest concentration of the compound necessary to cause a 50 percent reduction in cytopathic effect
Protocol: as §1, §5

Rhinovirus Type 17 = experiment: Inhibition of cytopathic effect in WI-38 cell culture tubes, rhinovirus type 17; format: cell-based; conditions: Enterovirus; 12.5 μg/ml; WI-38 cells; read-out: Inhibition grade, Rhinovirus Type 17
Protocol: as §2, §3, §4

Rhinovirus Type 13 = experiment: Inhibition of cytopathic effect in WI-38 cell culture tubes, rhinovirus type 13; format: cell-based; conditions: Enterovirus; 12.5 μg/ml; WI-38 cells; read-out: Inhibition grade, Rhinovirus Type 13
Protocol: as §2, §3, §4

Rhinovirus Type 6 = experiment: Inhibition of cytopathic effect in WI-38 cell culture tubes, rhinovirus type 6; format: cell-based; conditions: Enterovirus; 12.5 μg/ml; WI-38 cells; read-out: Inhibition grade, Rhinovirus Type 6
Protocol: as §2, §3, §4

Rhinovirus Type 19 = experiment: Inhibition of cytopathic effect in WI-38 cell culture tubes, rhinovirus type 19; format: cell-based; conditions: Enterovirus; 12.5 μg/ml; WI-38 cells; read-out: Inhibition grade, Rhinovirus Type 19
Protocol: as §2, §3, §4

Rhinovirus Type 39 = experiment: Inhibition of cytopathic effect in WI-38 cell culture tubes, rhinovirus type 39; format: cell-based; conditions: Enterovirus; 12.5 μg/ml; WI-38 cells; read-out: Inhibition grade, Rhinovirus Type 39
Protocol: as §2, §3, §4

Rhinovirus Type 59 = experiment: Inhibition of cytopathic effect in WI-38 cell culture tubes, rhinovirus type 59; format: cell-based; conditions: Enterovirus; 12.5 μg/ml; WI-38 cells; read-out: Inhibition grade, Rhinovirus Type 59
Protocol: as §2, §3, §4

Rhinovirus Type 21 = experiment: Inhibition of cytopathic effect in WI-38 cell culture tubes, rhinovirus type 21; format: cell-based; conditions: Enterovirus; 12.5 μg/ml; WI-38 cells; read-out: Inhibition grade, Rhinovirus Type 21
Protocol: as §2, §3, §4

Rhinovirus Type 56 = experiment: Inhibition of cytopathic effect in WI-38 cell culture tubes, rhinovirus type 56; format: cell-based; conditions: Enterovirus; 12.5 μg/ml; WI-38 cells; read-out: Inhibition grade, Rhinovirus Type 56
Protocol: as §2, §3, §4

[3] = test system: rhinovirus type 64 (RV-64); experiment: Tissue culture testing, rhinovirus type 64 in HeLa cells; format: cell-based; conditions: Enterovirus, 48 and 72 hours, NA = not active at the standard test conditions, read-out: RV-64: lowest concentration of the compound necessary to cause a 50 percent reduction in cytopathic effect
Protocol: as §1, §5

Rhinovirus Type 4 = experiment: Inhibition of cytopathic effect in WI-38 cell culture tubes, rhinovirus type 4; format: cell-based; conditions: Enterovirus; 12.5 μg/ml; WI-38 cells; read-out: Inhibition grade, Rhinovirus Type 4
Protocol: as §2, §3, §4

Rhinovirus Type 29 = experiment: Inhibition of cytopathic effect in WI-38 cell culture tubes, rhinovirus type 29; format: cell-based; conditions: Enterovirus; 12.5 μg/ml; WI-38 cells; read-out: Inhibition grade, Rhinovirus Type 29
Protocol: as §2, §3, §4

Rhinovirus Type 74 = experiment: Inhibition of cytopathic effect in WI-38 cell culture tubes, rhinovirus type 74; format: cell-based; conditions: Enterovirus; 12.5 μg/ml; WI-38 cells; read-out: Inhibition grade, Rhinovirus Type 74
Protocol: as §2, §3, §4

Rhinovirus Type 10 = experiment: Inhibition of cytopathic effect in WI-38 cell culture tubes, rhinovirus type 10; format: cell-based; conditions: Enterovirus; 12.5 μg/ml; WI-38 cells; read-out: Inhibition grade, Rhinovirus Type 10
Protocol: as §2, §3, §4

Rhinovirus Type 8 = experiment: Inhibition of cytopathic effect in WI-38 cell culture tubes, rhinovirus type 8; format: cell-based; conditions: Enterovirus; 12.5 μg/ml; WI-38 cells; read-out: Inhibition grade, Rhinovirus Type 8
Protocol: as §2, §3, §4

Rhinovirus Type 81 = experiment: Inhibition of cytopathic effect in WI-38 cell culture tubes, rhinovirus type 81; format: cell-based; conditions: Enterovirus; 12.5 μg/ml; WI-38 cells; read-out: Inhibition grade, Rhinovirus Type 81
Protocol: as §2, §3, §4

Rhinovirus Type 64 = experiment: Inhibition of cytopathic effect in WI-38 cell culture tubes, rhinovirus type 64; format: cell-based; conditions: Enterovirus; 12.5 μg/ml; WI-38 cells; read-out: Inhibition grade, Rhinovirus Type 64
Protocol: as §2, §3, §4

[4] = test system: Coxsackie A21 virus (Cox A21); experiment: Tissue culture testing, Coxsackie A21 virus in HeLa cells; format: cell-based; conditions: 48 and 72 hours, NA = not active at the standard test conditions, read-out: Cox A21: lowest concentration of the compound necessary to cause a 50 percent reduction in cytopathic effect
Protocol: as §1, §5

rhinovirus type 8 (RV-8) = experiment: Tissue culture testing, rhinovirus type 8 in HeLa cells; format: cell-based; conditions: Enterovirus, 48 and 72 hours, NA = not active at the standard test conditions, read-out: RV-8: lowest concentration of the compound necessary to cause a 50 percent reduction in cytopathic effect
Protocol: as §1, §5

Coxsackie A21 virus = experiment: Continuous Oral Feeding test in mice challenged IP with Coxsackie A21 virus; format: in vivo; conditions: po, 0.06 % in diet, 240 h
Protocol: Some of the compounds were also tested in animals utilizing the following procedure, hereainafter referred to as the "Continuous Oral Feeding" test. Coxsackie A21 virus grown on HeLa cells was administered at a concentration that produces 80 to 100% deaths in mice weighing 8 to 12 grams within 10 days, when the mice are injected (IP) with 0.2 ml of virus preparation. Mice were placed on diets containing test compound dispersed in plain commercially available rodent mash chow at a concentration of 0.06% (weight percent) on day 0. On day 1 the mice were challenged with the virus preparation, 0.2 ml/mouse, (IP). Deaths in both control and experimental groups were recorded for the 10 days and the results analyzed by a chi-square (.chi.^2) test. Chi-square values greater than 3.84 indicate the compound is active (95% confidence level).

## CS(=O)(=O)c1ccc(Oc2ccc(Cl)cc2)nc1 [Example 32, 2-(4-chlorophenoxy)-5-(methylsulfonyl)pyridine]
[1]
  MCC: 50 µg/mL
Rhinovirus Type 60
  inhibition at 12.5 µg/mL: ≥ 75%
Hanks Untyped
  inhibition at 12.5 µg/mL: ≥ 75%
Rhinovirus Type 58
  inhibition at 12.5 µg/mL: ≥ 75%
Rhinovirus Type 75
  inhibition at 12.5 µg/mL: < 50%
Cox A21; 200 mg/kg P.O. 3 h after IP challenge
  Single Oral Dose X^2 (chi-square, deaths vs virus control): 52.866
[2]
  EC50: 1.25 µg/mL (≈ 4.41 µM)
Rhinovirus Type 68
  inhibition at 12.5 µg/mL: ≥ 75%
Rhinovirus type 2 (RV-2)
  EC50: 2.5 µg/mL (≈ 8.81 µM)
Rhinovirus Type 17
  inhibition at 12.5 µg/mL: ≥ 75%
Rhinovirus Type 13
  inhibition at 12.5 µg/mL: < 50%
Rhinovirus Type 6
  inhibition at 12.5 µg/mL: 50 to 74%
Rhinovirus Type 19
  inhibition at 12.5 µg/mL: ≥ 75%
Rhinovirus Type 39
  inhibition at 12.5 µg/mL: < 50%
Rhinovirus Type 59
  inhibition at 12.5 µg/mL: ≥ 75%
Rhinovirus Type 21
  inhibition at 12.5 µg/mL: 50 to 74%
Rhinovirus Type 56
  inhibition at 12.5 µg/mL: ≥ 75%
[3]
  EC50: 1.25 µg/mL (≈ 4.41 µM)
Rhinovirus Type 4
  inhibition at 12.5 µg/mL: ≥ 75%
Rhinovirus Type 29
  inhibition at 12.5 µg/mL: ≥ 75%
Rhinovirus Type 74
  inhibition at 12.5 µg/mL: ≥ 75%
Rhinovirus Type 10
  inhibition at 12.5 µg/mL: ≥ 75%
Rhinovirus Type 8
  inhibition at 12.5 µg/mL: < 50%
Rhinovirus Type 81
  inhibition at 12.5 µg/mL: 50 to 74%
Rhinovirus Type 64
  inhibition at 12.5 µg/mL: ≥ 75%
[4]
  EC50: 3.12 µg/mL (≈ 11 µM)

## CCS(=O)(=O)c1ccc(Oc2ccc(Oc3ccccc3)cc2)nc1 [Example 44, 5-(ethylsulfonyl)-2-(4-phenoxyphenoxy)pyridine]
[1]
  MCC: 6.25 µg/mL
Cox A21; 600 mg/kg P.O. 3 h after IP challenge
  Single Oral Dose X^2 (chi-square, deaths vs virus control): 0.196
[2]
  EC50: 6.25 µg/mL (≈ 17.6 µM)
Rhinovirus type 2 (RV-2)
  EC50: 3.12 µg/mL (≈ 8.79 µM)
Rhinovirus type 8 (RV-8)
  EC50: 6.25 µg/mL (≈ 17.6 µM)
Coxsackie A21 virus
  Continuous Oral Feeding X^2 (chi-square, deaths vs control): 1.58
[4]
  EC50: 3.12 µg/mL (≈ 8.79 µM)
